PubChem BioAssay AID330 (DTP/NCI, 2004)
“And” between values parts separate entries of the source, which are not always exact repeats. Identical values can stand only once. Inconclusive results and toxic doses are left out. How the source made its calls: active means survival T/C of 150% or more; inactive means T/C below 125% in these data.

System: P388 leukemia ip, CD2F1 mice, survival T/C
Assay: NCI In Vivo Anticancer Drug Screen. Data for tumor model P388 Leukemia (intraperitoneal) in CD2F1 (CDF1) mice
Conditions: endpoint: median survival time, higher = longer survival
How it was run: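 Mice carrying the transplanted tumor received test compound or vehicle. Survival was recorded in each group, and the value is the treated-group measurement divided by that of the vehicle-treated control group.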

[1] = dose: 60.0 mg/kg/injection, schedule: Q01DX005 (ip), vehicle: saline with Tween-80
[2] = dose: 120.0 mg/kg/injection, schedule: Q01DX005 (ip), vehicle: saline with Tween-80
[3] = dose: 50.0 mg/kg/injection, schedule: Q01DX005 (ip), vehicle: saline with Tween-80
[4] = dose: 100.0 mg/kg/injection, schedule: Q01DX005 (ip), vehicle: saline with Tween-80
[5] = dose: 200.0 mg/kg/injection, schedule: Q01DX005 (ip), vehicle: saline with Tween-80
[6] = dose: 50.0 mg/kg/injection, schedule: Q01DX009 (ip), vehicle: saline with Tween-80
[7] = dose: 100.0 mg/kg/injection, schedule: Q01DX009 (ip), vehicle: saline with Tween-80
[8] = dose: 200.0 mg/kg/injection, schedule: Q01DX009 (ip), vehicle: saline with Tween-80
[9] = dose: 12.5 mg/kg/injection, schedule: Q01DX009 (ip), vehicle: Klucel (hydroxypropylcellulose) (HPC)
[10] = dose: 25.0 mg/kg/injection, schedule: Q01DX009 (ip), vehicle: Klucel (hydroxypropylcellulose) (HPC)
[11] = dose: 50.0 mg/kg/injection, schedule: Q01DX009 (ip), vehicle: Klucel (hydroxypropylcellulose) (HPC)
[12] = dose: 100.0 mg/kg/injection, schedule: Q01DX009 (ip), vehicle: Klucel (hydroxypropylcellulose) (HPC)
[13] = dose: 50.0 mg/kg/injection, schedule: Q01DX005 (ip), vehicle: saline
[14] = dose: 100.0 mg/kg/injection, schedule: Q01DX005 (ip), vehicle: saline
[15] = dose: 200.0 mg/kg/injection, schedule: Q01DX005 (ip), vehicle: saline

Measured: T/C

CC(=Nc1ccc(N(C)C)cc1)c1ccccc1
inactive: [1] 98 % of control | [2] 98 % of control

CCCCCC1([N+](=O)[O-])CN(C)CC2CCCCN2C1 (centres undefined)
inactive: dose: 100.0 mg/kg/injection, schedule: Q04DX002 (ip), vehicle: saline 102 % of control | dose: 200.0 mg/kg/injection, schedule: Q04DX002 (ip), vehicle: saline 102 % of control

O=C(O)CCCc1ccc2ccc3cccc4ccc1c2c34
inactive: [3] 102 % of control | [4] 98 % of control | [5] 100 % of control

CC1(C)OC2OC(C3CSC(=S=O)S3)C(O)C2O1 (centres undefined)
inactive: dose: 12.5 mg/kg/injection, schedule: Q01DX005 (ip), vehicle: Klucel + Tween-80 95 % of control | dose: 25.0 mg/kg/injection, schedule: Q01DX005 (ip), vehicle: Klucel + Tween-80 100 % of control | dose: 50.0 mg/kg/injection, schedule: Q01DX005 (ip), vehicle: Klucel + Tween-80 103 % of control

CC1(C)O[Te]2(OC1(C)C)OC(C)(C)C(C)(C)O2
inactive: dose: 3.12 mg/kg/injection, schedule: Q01DX001 (ip), vehicle: saline with Tween-80 100 % of control | dose: 6.25 mg/kg/injection, schedule: Q01DX001 (ip), vehicle: saline with Tween-80 105 % of control | dose: 100.0 mg/kg/injection, schedule: Q01DX001 (ip), vehicle: saline with Tween-80 93 % of control

CC1C(c2ccccc2)OC2N1CN(C(C)(C)C)CC2(C)C (centres undefined)
inactive: [6] 100 % of control | [7] 104 % of control | [8] 105 % of control

CC(=O)Oc1cccn(C)c1=O
inactive: dose: 37.5 mg/kg/injection, schedule: Q01DX009 (ip), vehicle: saline 108 % of control | dose: 75.0 mg/kg/injection, schedule: Q01DX009 (ip), vehicle: saline 103 % of control | dose: 150.0 mg/kg/injection, schedule: Q01DX009 (ip), vehicle: saline 113 % of control | dose: 300.0 mg/kg/injection, schedule: Q01DX009 (ip), vehicle: saline 119 % of control | dose: 500.0 mg/kg/injection, schedule: Q01DX009 (ip), vehicle: saline 117 % of control

CC(=O)C1=C(C)C2CC3(C)CC(C2(C)C1)C3(C)C (centres undefined)
inactive: [3] 100 % of control | [4] 102 % of control | [5] 100 % of control

C/C(=N\NC(=S)N1CCN(C2CCCCC2)CC1)c1ccccn1
inactive: dose: 1.56 mg/kg/injection, schedule: Q01DX005 (ip), vehicle: saline with Tween-80 103 % of control | dose: 3.13 mg/kg/injection, schedule: Q01DX005 (ip), vehicle: saline with Tween-80 106 % of control | dose: 6.25 mg/kg/injection, schedule: Q01DX005 (ip), vehicle: saline with Tween-80 101 % of control and 87 % of control

NC(=S)NC(=O)c1cccs1
inactive: [6] 95 % of control | [7] 94 % of control | [8] 93 % of control

CC(O)C(c1ccccc1)S(C)(=O)=O (centres undefined)
inactive: dose: 25.0 mg/kg/injection, schedule: Q01DX009 (ip), vehicle: saline with Tween-80 101 % of control | [6] 110 % of control | [7] 116 % of control | [8] 113 % of control

Nc1nc(=S)ss1
inactive: [9] 116 % of control and 98 % of control | [10] 107 % of control and 111 % of control | [11] 109 % of control and 119 % of control | [12] 109 % of control

CN(C)CCCN1c2ccccc2C2CC2c2ccccc21 (centres undefined)
inactive: dose: 5.0 mg/kg/injection, schedule: Q01DX009 (ip), vehicle: saline with Tween-80 100 % of control | [7] 98 % of control

C=CC(C)(C)C1=CC(=O)C(OC)=CC1=O
inactive: dose: 50.0 mg/kg/injection, schedule: Q01DX005 (ip), vehicle: Klucel (hydroxypropylcellulose) (HPC) 100 % of control | dose: 100.0 mg/kg/injection, schedule: Q01DX005 (ip), vehicle: Klucel (hydroxypropylcellulose) (HPC) 103 % of control | dose: 200.0 mg/kg/injection, schedule: Q01DX005 (ip), vehicle: Klucel (hydroxypropylcellulose) (HPC) 100 % of control

Cc1nn(C(=O)c2cccnc2)c(-c2ccccc2)c1N=Nc1ccc(C(=O)O)cc1
inactive: [3] 93 % of control | [4] 93 % of control

CCC(CC)CS(=O)(=O)OCCCCOS(=O)(=O)CC(CC)CC
inactive: [13] 99 % of control | [14] 107 % of control | [15] 111 % of control

CC(C)(C)COc1ccc2c(c1)C1=NC2=NC2=NC(=NC3=NC(=NC4=NC(=N1)c1ccc(OCC(C)(C)C)cc14)c1ccc(OCC(C)(C)C)cc13)c1ccc(OCC(C)(C)C)cc12
inactive: dose: 60.0 mg/kg/injection, schedule: Q01DX005 (ip), vehicle: Klucel (hydroxypropylcellulose) (HPC) 99 % of control | dose: 120.0 mg/kg/injection, schedule: Q01DX005 (ip), vehicle: Klucel (hydroxypropylcellulose) (HPC) 88 % of control | dose: 240.0 mg/kg/injection, schedule: Q01DX005 (ip), vehicle: Klucel (hydroxypropylcellulose) (HPC) 89 % of control

c1cc2cc3c(cc2cc1CC1NCCc2cc4c(cc21)OCO4)OCO3 (centres undefined)
inactive: [9] 100 % of control | [10] 91 % of control | [11] 107 % of control | [12] 91 % of control

C=CCCN=C(SC)SC
inactive: [1] 104 % of control | [2] 114 % of control

O=S(=O)(Nc1ccccc1C(F)(F)F)c1ccc(F)cc1
inactive: [1] 99 % of control | [2] 100 % of control | dose: 240.0 mg/kg/injection, schedule: Q01DX005 (ip), vehicle: saline with Tween-80 95 % of control

O=S(=O)(O)SCCN1CCOCC1
inactive: dose: 100.0 mg/kg/injection, schedule: Q01DX009 (ip), vehicle: saline 90 % of control | dose: 200.0 mg/kg/injection, schedule: Q01DX009 (ip), vehicle: saline 115 % of control | dose: 400.0 mg/kg/injection, schedule: Q01DX009 (ip), vehicle: saline 110 % of control

COC(=O)C1C(NC(C)(C)C)CCN1C(C)=O (centres undefined)
inactive: [13] 89 % of control | [14] 88 % of control | [15] 89 % of control

O=C1NC2CCCC1C(c1ccccc1Cl)NC2c1ccccc1Cl (centres undefined)
inactive: dose: 100.0 mg/kg/injection, schedule: Q04DX003 (ip), vehicle: suspension in saline 98 % of control | dose: 200.0 mg/kg/injection, schedule: Q04DX003 (ip), vehicle: suspension in saline 100 % of control | dose: 400.0 mg/kg/injection, schedule: Q04DX003 (ip), vehicle: suspension in saline 100 % of control

COC(=O)C(=O)c1c(C2CC2)[nH]c2[nH]n(-c3ccccc3)c(=O)c2c1=O
inactive: [1] 96 % of control | [2] 91 % of control

Nc1n[nH]c(N)c1N=Nc1ccccc1
inactive: [11] 98 % of control | [12] 99 % of control | dose: 200.0 mg/kg/injection, schedule: Q01DX009 (ip), vehicle: Klucel (hydroxypropylcellulose) (HPC) 93 % of control | dose: 400.0 mg/kg/injection, schedule: Q01DX009 (ip), vehicle: Klucel (hydroxypropylcellulose) (HPC) 94 % of control

COC(=O)c1cc2cc3ccccc3cc2cc1C(=O)OC
inactive: dose: 15.0 mg/kg/injection, schedule: Q01DX005 (ip), vehicle: saline with Tween-80 100 % of control | dose: 30.0 mg/kg/injection, schedule: Q01DX005 (ip), vehicle: saline with Tween-80 101 % of control | [1] 102 % of control

Clc1ccc(Cl)nn1
inactive: [6] 97 % of control | [7] 100 % of control | [8] 100 % of control

COC(=O)C1(C(C)C(=O)c2ccc(Cl)cc2)NC(=S)NC(=O)C1C#N (centres undefined)
inactive: dose: 60.0 mg/kg/injection, schedule: Q01DX005 (ip), vehicle: saline 104 % of control | dose: 120.0 mg/kg/injection, schedule: Q01DX005 (ip), vehicle: saline 106 % of control | dose: 240.0 mg/kg/injection, schedule: Q01DX005 (ip), vehicle: saline 108 % of control
